Like-named read-outs stand apart in the source and are kept apart here.
Key:
[1] = LD10; conditions: in vivo
[2] = tested on: BT474; test: Tumor cell line growth; type: cell-based; conditions: Homo sapiens, BT-474, 96 h; breast, 4 days
Experimental: (§1) The assay measures protein content of acid-fixed cells using the counterion binding dye sulforhodamine B (SRB, Sigma). […] For other cell lines, the cells (2000 cells/well in 100 μL) were introduced into wells immediately after dispensing the drug solutions. After 4 days (37° C., 5% CO2) the monolayers were washed 3 times with PBS and fixed with 200 μL ice-cold 10% TCA (Fisher Scientific), and kept at 4° C. for 60 min. The TCA was removed and the fixed monolayers were washed 5 times with tap water and allowed to dry completely at room temperature on absorbent paper. The cellular protein was stained for 10 min with 100 μL 0.4% SRB dissolved in 1% acetic acid. After 5 washes with tap water, the dye was solubilized in 10 mM Tris base (100 μL per well) and absorbance read at 570 nm on a Dynatech plate reader model MR5000. Growth inhibition data are expressed as a percentage of absorbance detected in control wells which were treated with 0.4% DMSO alone. DMSO controls were not different from cells grown in regular growth medium. IC50 values were determined using a four parameter curve fit function.
(§2) For K562, DlB, L1210, 7TDl, T27A, and Colo320 DM cells, an MTT assay was used to assess cell growth. […] The cells were incubated at 37° C. for 4 days in a humidified 7% CO2 atmosphere. At the end point, […] of MTT (5 mg/mL in PBS, Sigma) was added to each well. The plates were incubated at 37° C. for 4 hr followed by addition of […] of solubilization solution (20% w/v of SDS in 50% N, N-dimethylformamide, pH 4.7) to each well. The plates were incubated overnight in a sealed container with a humidified atmosphere. The absorbance was determined at 570 nm wavelength with a reference wavelength of 630 nm using an ELISA plate reader.

[3] = tested on: C81-61; test: Tumor cell line growth; type: cell-based; conditions: Homo sapiens, C8161, 96 h; melanoma, 4 days
Experimental: as §1, §2

[4] = tested on: Calu-3; test: Tumor cell line growth; type: cell-based; conditions: Homo sapiens, Calu-3, 96 h; lung, 4 days
Experimental: as §1, §2

[5] = tested on: DU145; test: Tumor cell line growth; type: cell-based; conditions: Homo sapiens, DU-145, 96 h; prostate, 4 days
Experimental: as §1, §2

[6] = tested on: HBL100; test: Tumor cell line growth; type: cell-based; conditions: Homo sapiens, HBL-100, 96 h; breast, 4 days
Experimental: as §1, §2

[7] = tested on: K562; test: Tumor cell line growth; type: cell-based; conditions: Homo sapiens, K562, 96 h; leukemia, 4 days
Experimental: as §1, §2

[8] = tested on: MCF7; test: Tumor cell line growth; type: cell-based; conditions: Homo sapiens, MCF7, 96 h; breast, 4 days
Experimental: as §1, §2

[9] = tested on: MDA MB 361; test: Tumor cell line growth; type: cell-based; conditions: Homo sapiens, MDA-MB-361, 96 h; breast, 4 days
Experimental: as §1, §2

[10] = tested on: PC3; test: Tumor cell line growth; type: cell-based; conditions: Homo sapiens, PC-3, 96 h; prostate, 4 days
Experimental: as §1, §2

[11] = tested on: SF763T; test: Tumor cell line growth; type: cell-based; conditions: Homo sapiens, 96 h; glioma, 4 days
Experimental: as §1, §2

[12] = tested on: SF767T; test: Tumor cell line growth; type: cell-based; conditions: Homo sapiens
Experimental: as §1, §2

[13] = tested on: SKBR3; test: Tumor cell line growth; type: cell-based; conditions: Homo sapiens, SK-BR-3, 96 h; breast, 4 days
Experimental: as §1, §2

[14] = tested on: SKOV3T; test: Tumor cell line growth; type: cell-based; conditions: Homo sapiens
Experimental: as §1, §2

[15] = tested on: SKOV3; test: Tumor cell line growth; type: cell-based; conditions: Homo sapiens
Experimental: as §1, §2

[16] = tested on: T47D; test: Tumor cell line growth; type: cell-based; conditions: Homo sapiens, 96 h, breast, 4 days
Experimental: as §1, §2

[17] = tested on: U118MG; test: Tumor cell line growth; type: cell-based; conditions: Homo sapiens, U-118-MG, 96 h; glioma, 4 days
Experimental: as §1, §2

[18] = tested on: U138MG; test: Tumor cell line growth; type: cell-based; conditions: Homo sapiens, U138-MG, 96 h; glioma, 4 days
Experimental: as §1, §2

[19] = tested on: ZR 75-1; test: Tumor cell line growth; type: cell-based; conditions: Homo sapiens, ZR-75-1, 96 h; breast, 4 days
Experimental: as §1, §2

[20] = tested on: ZR75-30; test: Tumor cell line growth; type: cell-based; conditions: Homo sapiens, ZR-75-30, 96 h; breast, 4 days
Experimental: as §1, §2

[21] = mouse, in vivo
Experimental: (§3) Plasma was prepared and frozen in liquid nitrogen. Tissues and organs were resected and immediately frozen in liquid nitrogen. After the addition of an internal standard, plasma samples were acidified with HCl and extracted with acetonitrile. The acetonitrile fraction was evaporated to dryness in a vacuum centrifuge with heating and redissolved in methanol. Tissue and organ samples were homogenized according to the weight ratio of 1:5 (w:v) in 50 mM Tris-HCl, pH 7.4, at 20,000 rev/min, using a tissue homogenizer (Brinkmann Polytron Model PT3000). After the addition of an internal standard, the homogenate was acidified with HCl and then extracted with acetonitrile. The acetonitrile fraction was then extracted with an equal volume of diethyl ether. The ether fraction was evaporated to dryness in a vacuum centrifuge with heating and redissolved in methanol.
(§4) Samples for HPLC analysis were injected onto a Hewlett Packard Hypersil 5-μm C18 cartridge column (100×4.6 mm). The mobile phase was methanol:35 mM KH2 PO4 (pH 4.5) 55:45 containing 4 mM triethylamine. The flow rate was 1.2 mL/min. The compounds were monitored by UV absorption at 254 nm using a Hewlett-Packard diode-array detector (HP Model 1090). Plasma and tissue concentrations were determined from standard curves using peak area for quantitation. […] The internal standard used was 5-methyl-pyrazole-4-carboxylic acid-(4-trifluoromethyl)-anilide.
(§5) Table XXII. […] Plasma and brain samples were prepared and analyzed by HPLC as described in Appendix 6. All results were calculated by the method of internal standardization. NT= not tested, ND= not detected.

[22] = in vivo; design: species or system rat
Experimental: as §3, §4, §5

[23] = PDGF-R expression ++, read-out: SRB

Q: For `c1ccc(-c2cnc3cc4ccccc4cc3n2)cc1` [Compound G22], which LD10 [1] is on record?
A: Its LD10 is 25 mg/kg.

Q: Which results are given for `Cc1oncc1C(=O)Nc1ccc(C(F)(F)F)cc1` [Compound A10, 5-methylisoxazole-4 carboxylic acid-(4-trifluromethyl)-anilide]?
A: IC50 [2]: > 100 µM; IC50 [3]: 40 µM; IC50 [4]: > 400 µM; IC50 [5]: > 100 µM; IC50 [6]: > 400 µM; IC50 [7]: 26 µM; IC50 [8]: 288 µM; IC50 [9]: 200 µM; IC50 [10]: 46 µM; IC50 [11]: 0.8 µM; IC50 ([12]; 96 h, glioma, 4 days, read-out: IC50): 3 µM; IC50 [12, 23]: 3 µM; IC50 [13]: > 400 µM; IC50 ([14]; 96 h, ovarian, 4 days, read-out: IC50): 40 µM; IC50 [14, 23]: 50 µM; IC50 ([15]; SK-OV-3, 96 h, ovarian, 4 days, read-out: IC50): > 100 µM; IC50 ([15]; SK-OV-3, PDGF-R expression -, read-out: SRB): > 100 µM; IC50 [16]: 195 µM; IC50 [17]: 150 µM; IC50 [18]: > 400 µM; IC50 [19]: 355 µM; IC50 [20]: 300 µM; plasma concentration, single dose ([21]; 20 mg/kg): not detected; plasma concentration, single dose ([21]; 40 mg/kg): not detected; time detected in plasma ([22]; IP A10 80 mg/kg single dose): up to 8 hr; time by which A10 converted to B11 ([22]; IP A10 80 mg/kg, first time point analyzed): ≤ 2 h; Cmax ([22]; rat, plasma, ip, 80 mg/kg): 5000 ng/mL

From patent publication US6331555A, “Treatment of platelet derived growth factor related disorders such as cancers” (priority 1999, dated 2001)
